Source: the supplement of paper PMC5844555

How the values were obtained:
Experiment in all cases: 3' UTR reporter interaction score (median-centred robust z-score of log2 firefly/Renilla activity); higher = less repression of the 3' UTR reporter
Details in all cases: HEK293T; 48 h
BRCA2 = tested on: BRCA2
Summary of the method: (§1)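 Firefly and Renilla luciferase activities were read 48 h post-transfection in HEK293T cells (10,000/well, 96-well plates). The cells had received 100 ng firefly luc2P reporter bearing the gene's 3' UTR, 20 ng Renilla pRL-TK control and 2.5 pmol miRNA mimic via DharmaFECT Duo. The interaction score, where more negative means interaction, is a per-plate robust z-score (median, median absolute deviation) of the log firefly/Renilla ratio, median-centred per miRNA and averaged over at least two independent screens.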

EZH2 = tested on: EZH2
Summary of the method: as §1

FBXW7 = tested on: FBXW7
Summary of the method: as §1

HRAS = tested on: HRAS
Summary of the method: as §1

MYB = tested on: MYB
Summary of the method: as §1

MYCN = tested on: MYCN
Summary of the method: as §1

MYC = tested on: MYC
Summary of the method: as §1

MYT1L = tested on: MYT1L
Summary of the method: as §1

NOTCH1 = tested on: NOTCH1
Summary of the method: as §1

PHF6 = tested on: PHF6
Summary of the method: as §1

PHOX2B = tested on: PHOX2B
Summary of the method: as §1

RB1 = tested on: RB1
Summary of the method: as §1

TP53 = tested on: TP53
Summary of the method: as §1

ZEB2 = tested on: ZEB2
Summary of the method: as §1

Row | Sequence | 3' UTR reporter interaction score (BRCA2) | 3' UTR reporter interaction score (EZH2) | 3' UTR reporter interaction score (FBXW7) | 3' UTR reporter interaction score (HRAS) | 3' UTR reporter interaction score (MYB) | 3' UTR reporter interaction score (MYCN) | 3' UTR reporter interaction score (MYC) | 3' UTR reporter interaction score (MYT1L) | 3' UTR reporter interaction score (NOTCH1) | 3' UTR reporter interaction score (PHF6) | 3' UTR reporter interaction score (PHOX2B) | 3' UTR reporter interaction score (RB1) | 3' UTR reporter interaction score (TP53) | 3' UTR reporter interaction score (ZEB2)
1 | UGAGUUGGCCAUCUGAGUGAG | -0.135 | 0.24 | -0.251 | -0.0567 | 0.927 | -3.35 | -0.317 | 2.61 | 1.03 | 2.42 | -3.59 | 0.000132 | -0.988 | 0.14
2 | UGAUAUGUUUGAUAUAUUAGGU | -2.64 | -0.107 | 0.769 | -0.158 | -0.701 | 0.278 | 0.0447 | 0.136 | 0.183 | -0.754 | 0.239 | -0.392 | 0.331 | -0.629
3 | UGAUUGGUACGUCUGUGGGUAGA | -0.144 | -0.0408 | -0.747 | 0.535 | 1.17 | 0.569 | -2.85 | 0.161 | -4.51 | -0.0836 | -0.434 | 0.153 | 0.443 | -0.485
4 | UGAUUGUCCAAACGCAAUUCU | 0.855 | -0.465 | -0.0252 | 0.277 | 0.183 | 0.178 | -2.91 | -0.829 | 0.81 | 1.16 | 0.249 | 0.331 | -0.447 | 0.494
5 | UGCACCAUGGUUGUCUGAGCAUG | 0.899 | 0.00438 | -1.84 | -0.315 | 0.379 | -5.44 | -0.0708 | 0.0254 | -0.682 | 0.727 | -1.01 | 0.168 | 0.617 | -1.45
6 | UGCCUGGGUCUCUGGCCUGCGCGU | -0.375 | -0.794 | -2.61 | -1.95 | 0.325 | -0.0821 | 0.101 | -0.227 | 0.3 | 0.782 | -0.846 | -2.47 | 0.35 | 0.387
7 | UGCUGACUCCUAGUCCAGGGC | -3.34 | 0.906 | 0.322 | -1.77 | 0.123 | 0.0884 | 0.54 | 0.333 | -0.364 | 1.06 | -0.537 | 2.05 | 0.366 | -1.99
8 | UGCUUCCUUUCAGAGGGU | -0.366 | 0.85 | 0.46 | -0.697 | 1.13 | 0.0627 | 0.327 | 0.521 | 0.215 | -0.232 | -0.331 | -0.583 | -1.13 | -0.357
9 | UGGAAGACUAGUGAUUUUGUUG | -0.32 | 0.509 | -0.892 | 0.856 | 0.454 | 0.44 | -0.317 | -1.31 | -0.0478 | 0.207 | 0.182 | 0.176 | -1.48 | -0.874
10 | UGGAAUGUAAAGAAGUAUGUA | 0.327 | -0.314 | -2.71 | 1.1 | 0.679 | -0.505 | 0.479 | -0.17 | -0.912 | 0.925 | 0.106 | 0.684 | -1.46 | 0.551
11 | UGGAAUGUAAGGAAGUGUGUGG | -0.366 | 0.341 | -0.356 | 0.0317 | -0.696 | -2.18 | 0.26 | 0.351 | -0.967 | 2.43 | 0.446 | 1.33 | -1.12 | 2.54
12 | UGGACGGAGAACUGAUAAGGGU | 0.362 | -0.0404 | 0.0713 | -0.151 | 0.576 | -0.133 | -0.199 | 0.408 | -0.401 | 0.399 | -1.18 | -0.376 | 0.461 | 0.823
13 | UGGAGAGAAAGGCAGUUC | -0.859 | -0.838 | -1.52 | -0.0201 | 0.823 | 0.412 | 0.053 | 0.463 | -0.015 | -0.104 | -0.292 | -0.051 | -1.31 | 1.17
14 | UGGAGGAGAAGGAAGGUGAUG | -2.61 | -2.61 | -0.125 | -0.351 | 1.88 | 0.481 | -2.42 | 2.74 | -0.968 | -0.248 | 2.06 | 1.82 | -0.557 | 3.77
15 | UGGCAGUGUAUUGUUAGCUGGU | 0.888 | -0.805 | 0.551 | 1.02 | -4.53 | -4.71 | -2.6 | -0.141 | -4.47 | -3.24 | -0.186 | -0.641 | 0.314 | 0.089
16 | UGGCAGUGUCUUAGCUGGUUGUU | 0.486 | 0.955 | -0.0417 | 1.33 | -2.9 | -3.64 | -0.668 | 1.45 | -3.59 | -0.889 | -0.535 | -0.641 | 1.68 | 0.283
17 | UGGCUCAGUUCAGCAGGAACAG | 1.1 | -0.274 | -0.156 | -1.16 | 0.0413 | 0.921 | -2.14 | 0.53 | -1.7 | -0.0264 | 0.0378 | 0.0253 | 0.345 | 0.984

Row | Sequence | 3' UTR reporter interaction score (BRCA2) | 3' UTR reporter interaction score (EZH2) | 3' UTR reporter interaction score (FBXW7) | 3' UTR reporter interaction score (HRAS) | 3' UTR reporter interaction score (MYB) | 3' UTR reporter interaction score (MYCN) | 3' UTR reporter interaction score (MYC) | 3' UTR reporter interaction score (MYT1L) | 3' UTR reporter interaction score (NOTCH1) | 3' UTR reporter interaction score (PHF6) | 3' UTR reporter interaction score (PHOX2B) | 3' UTR reporter interaction score (RB1) | 3' UTR reporter interaction score (TP53) | 3' UTR reporter interaction score (ZEB2)
18 | UGGGCGUAUCUGUAUGCUA | -0.638 | -1.3 | 0.752 | -0.235 | 0.397 | 0.906 | -0.549 | 0.105 | -2.02 | 1.09 | 2.15 | -0.659 | -0.0916 | 2.53
19 | UGGUAGACUAUGGAACGUA | -0.722 | -0.991 | 0.552 | -0.461 | 0.96 | 0.966 | -0.304 | 0.0286 | 0.639 | -0.619 | -0.373 | 1.85 | -0.283 | 0.356
20 | UGGUCUAGGAUUGUUGGAGGAG | 0.659 | 1.07 | -0.0822 | 1.1 | 0.332 | 0.689 | 0.131 | -1.45 | -3.72 | -1.9 | -0.574 | -0.907 | 0.772 | -1.89
21 | UGGUGCGGAGAGGGCCCACAGUG | -0.582 | -0.738 | 0.508 | -0.688 | -0.475 | 0.131 | -0.919 | 1.6 | 0.612 | 0.575 | 0.217 | 0.451 | -0.894 | 0.607
22 | UGGUGGGCCGCAGAACAUGUGC | -0.495 | -0.375 | 1.65 | -0.926 | -0.29 | 0.848 | 0.0166 | 1.92 | -1.38 | -0.487 | 0.685 | -1.35 | 0.539 | 0.648
23 | UGGUUCUAGACUUGCCAACUA | -1.9 | 0.495 | 0.0613 | 0.292 | 0.383 | 0.807 | 0.238 | -0.905 | -0.954 | 0.0797 | -0.729 | 0.0711 | -0.646 | 1.08
24 | UGGUUGACCAUAGAACAUGCGC | -0.794 | -1.23 | -0.743 | -0.568 | 2.68 | 1.49 | -0.769 | 3.19 | 2.11 | 0.184 | 1.74 | 3.51 | -0.14 | 2.61
25 | UGGUUUACCGUCCCACAUACAU | -0.68 | 0.684 | 0.14 | -0.0846 | 0.643 | 0.327 | -0.285 | 1.3 | -0.0746 | -0.512 | 0.385 | 0.158 | -0.635 | 1.07
26 | UGUAAACAUCCCCGACUGGAAG | -0.00428 | 0.0787 | 0.0307 | 0.945 | 0.447 | -1 | -0.345 | 0.873 | -0.121 | 0.331 | 0.775 | 1.18 | -0.339 | -1.09
27 | UGUAAACAUCCUACACUCAGCU | 0.276 | 0.233 | 0.842 | 1.01 | 0.789 | -0.781 | -0.616 | 0.998 | -0.804 | -1.63 | -0.561 | 0.456 | -0.377 | -1.14
28 | UGUAAACAUCCUACACUCUCAGC | 0.774 | -0.7 | 0.711 | 0.698 | 0.661 | -0.445 | -0.915 | 0.183 | -1.62 | 0.545 | 0.58 | 0.235 | 0.239 | -2.01
29 | UGUAGUGUUUCCUACUUUAUGGA | -3.32 | 0.133 | -0.472 | 0.941 | 0.85 | 1.22 | 0.753 | 1.44 | -0.00364 | -0.93 | 0.885 | -0.511 | -0.138 | -2.54
30 | UGUCACUCGGCUCGGCCCACUAC | 1.08 | 0.621 | 0.218 | -0.561 | 0.0813 | 0.184 | -0.146 | 0.664 | 0.551 | -0.284 | -0.663 | -0.766 | 0.457 | -1.79
31 | UGUCAGUUUGUCAAAUACCCC | -0.428 | -0.235 | -3.7 | 0.221 | 0.7 | 0.673 | 0.119 | 0.484 | 0.533 | -0.327 | 1.35 | 0.229 | -1.17 | 1.58
32 | UGUCUGCCCGCAUGCCUGCCUCU | 0.911 | 1.24 | 0.234 | -2.78 | -1.11 | -1.48 | -0.223 | 0.694 | -0.629 | 1.55 | -1.69 | 0.711 | -0.199 | -0.366
33 | UGUCUUGCAGGCCGUCAUGCA | -0.496 | -0.168 | 0.883 | 1.07 | -0.711 | -0.456 | 0.266 | 0.257 | 0.776 | -0.169 | 0.814 | 1.34 | -1.21 | -2.19
34 | UGUGACAGAUUGAUAACUGAAA | -1.43 | 0.213 | -0.255 | -0.136 | 0.185 | 0.0393 | 0.173 | -1.77 | 1.11 | -0.291 | 1.05 | 0.581 | 0.555 | 0.919
